Laboratory results taken from patent publication US20060258000A1, “Use of steady-state oxygen gradients to modulate animal cell functions” (priority 2003, published 2006).

Experiments:
CYP2B [1] = system: CYP2B
Method: (§1) Primary rat hepatocytes from 6-well plates or chamber slides were lysed and scraped in SDS buffered (10 mM Tris/HCl (ph 7.4), 0.1% SDS). Samples were added to microcentrifuge tubes with 5 μl of PMSF, homogenized with a pestle, and centrifuged at 16,200 g for 5 minutes. Total protein content in the supernatant was determined using the DC protein assay (Bio-Rad, Hercules, Calif.) and used to normalize sample loading. Samples prepared in sample buffer were loaded (10-20 μg/well) for electrophoresis on a 10% polyacrylamide gel. After overnight transfer on to a PVDF membrane, blots were incubated with a blocking buffered (20 mM Tris-Cl (pH 7.4), 500 mM NaCl, 0.1% Tween 20, and 5% (w/v) milk powder) and washed with buffer without milk powder, incubation for 1 h with primary antibody against rat PEPCK or rat CYP2B (Genset, Woburn, Mass.) was followed by washing and incubation with either anti-sheep (PEPCK) or anti-goat (CYP2B) HRP-conjugated secondary antibody for 45 minutes. After washing, the Pierce SuperSignal chemiluminescence reagent was used for detection. All electrophoresis gels were run with molecular mass markers to verify PEPCK bands (67 kDa) or CYP2B1/2 bands (56 kDa). Optical density measurements were obtained using scanned blot images with 1d gelscan software (Metamorph).

CYP2B [2] = assay: CYP2B protein induction in static and perfused co-cultures, Western blot
Method: as §1

CYP3A = CYP3A protein induction in static and perfused co-cultures, Western blot
CYP2B [3] = assay: Zonal induction of CYP2B in hepatocyte bioreactor under oxygen gradient, Western blot
Method: Bioreactor cultures were perfused with media and allowed to reach steady state before the addition of inductive agents of glucagon for PEPCK up-regulation or phenobarbitol (PB) and EGF for CYP2B1 induction. […] Media with 0.75 mM PB and 0.16 nM EGF was perfused for 36 h to induced CYB2B expression before cell lysis. Cell lysates were collected at the end of each experiment for electrophoretic analysis.
Primary rat hepatocytes from 6-well plates or chamber slides were lysed and scraped in SDS buffered (10 mM Tris/HCl (ph 7.4), 0.1% SDS). Samples were added to microcentrifuge tubes with 5 μl of PMSF, homogenized with a pestle, and centrifuged at 16,200 g for 5 minutes. Total protein content in the supernatant was determined using the DC protein assay (Bio-Rad, Hercules, Calif.) and used to normalize sample loading. Samples prepared in sample buffer were loaded (10-20 μg/well) for electrophoresis on a 10% polyacrylamide gel.

PEPCK = assay: Zonal induction of PEPCK in hepatocyte bioreactor under oxygen gradient, Western blot; format: cell-based, rat
Source text: Hepatocyte Isolation And Culture.
Bioreactor And Flow Circuit.

[4] = cultures perfused with 200 μM PB, 36 hours
[5] = static cultures induced with PB

Q: How did the “CYP2B induction and localization” value (CYP2B [1]) turn out when C[C@@H]1C[C@H]2[C@@H]3CCC4=CC(=O)C=C[C@]4(C)[C@@]3(F)[C@@H](O)C[C@]2(C)[C@@]1(O)C(=O)CO [DEX, dexamethasone] was run?
A: high levels which were localized to inlet regions

Q: What does the source list for CCC1(c2ccccc2)C(=O)NC(=O)NC1=O [PB, phenobarbital]?
A: CYP2B expression over controls (CYP2B [2]; [4]): Dramatic expression of both CYPs over controls; CYP2B spatial distribution along bioreactor (CYP2B [2]; [4]): levels were highest in the lower-oxygen outlet regions; CYP2B expression (CYP2B [2]; [5]): moderate CYP2B expression; CYP3A expression over controls (CYP3A; [4]): Dramatic expression of both CYPs over controls; CYP3A spatial distribution along bioreactor (CYP3A; [4]): increasing expression from inlet to outlet; CYP3A expression (CYP3A; [5]): low CYP3A; CYP2B induction along the chamber (CYP2B [3]; 0.75 mM PB with 0.16 nM EGF, 36 h, inlet pO2 76 mmHg, 0.5 mL/min (physiologic gradient)): increasing CYP2B induction along the length of the chamber; CYP2B levels from inlet to outlet (CYP2B [3]; PB with EGF, supraphysiologic oxygen gradient, same flow rate): did not result in significant differences in CYP2B levels from inlet to outlet

Q: For glucagon, which “PEPCK protein levels in 4 bioreactor regions” value (PEPCK; 10 nM glucagon 8 h, inlet pO2 76 mmHg, 0.5 mL/min (physiologic gradient)) is on record?
A: maximal PEPCK protein levels at the inlet decreasing to half maximal at the outlet

Q: What about the PEPCK induction distribution (PEPCK; 10 nM glucagon, inlet pO2 158 mmHg, 0.5 ml/min (supraphysiologic gradient)) of the same compound?
A: heterogenous induction of PEPCK was abrogated
